Assay results reported in patent publication US20080234262A1 (Wyeth, priority 2007, published 2008).
Read-outs that look alike come from different tables or passages of the source.

Columns and labels:
[1] = test system: breast line MDA468; assay: In vitro cell culture growth assay (MTS), MDA468; type: cell-based, human; conditions: Homo sapiens, 72 h, MDA468 cells, three days after drug treatment
Summary of the method: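 Growth measured as percent of same-plate vehicle control by MTS metabolic dye conversion (A490). Breast MDA468 and prostate LNCap cells, plated a day ahead, were exposed to compounds for 3 days.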

[2] = test system: prostate line LNCap; assay: In vitro cell culture growth assay (MTS), LNCap; type: cell-based, human; conditions: Homo sapiens, 72 h, LNCap cells, three days after drug treatment;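 also: viable cell density read by absorbance at 490 nm, growth expressed as percent of vehicle-treated cells on the same plate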
[3] = target: PI3K (Homo sapiens, UniProt P42336); assay: Fluorescence polarization assay for PI3K; type: biochemical;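 also: PI3K kinase reaction on PIP2 with ATP, 30-60 min, product sensed by GST-GRP with red probe in fluorescence polarization (mP), controls without enzyme and at zero time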
Chain of PI3K (P42336 whole entry): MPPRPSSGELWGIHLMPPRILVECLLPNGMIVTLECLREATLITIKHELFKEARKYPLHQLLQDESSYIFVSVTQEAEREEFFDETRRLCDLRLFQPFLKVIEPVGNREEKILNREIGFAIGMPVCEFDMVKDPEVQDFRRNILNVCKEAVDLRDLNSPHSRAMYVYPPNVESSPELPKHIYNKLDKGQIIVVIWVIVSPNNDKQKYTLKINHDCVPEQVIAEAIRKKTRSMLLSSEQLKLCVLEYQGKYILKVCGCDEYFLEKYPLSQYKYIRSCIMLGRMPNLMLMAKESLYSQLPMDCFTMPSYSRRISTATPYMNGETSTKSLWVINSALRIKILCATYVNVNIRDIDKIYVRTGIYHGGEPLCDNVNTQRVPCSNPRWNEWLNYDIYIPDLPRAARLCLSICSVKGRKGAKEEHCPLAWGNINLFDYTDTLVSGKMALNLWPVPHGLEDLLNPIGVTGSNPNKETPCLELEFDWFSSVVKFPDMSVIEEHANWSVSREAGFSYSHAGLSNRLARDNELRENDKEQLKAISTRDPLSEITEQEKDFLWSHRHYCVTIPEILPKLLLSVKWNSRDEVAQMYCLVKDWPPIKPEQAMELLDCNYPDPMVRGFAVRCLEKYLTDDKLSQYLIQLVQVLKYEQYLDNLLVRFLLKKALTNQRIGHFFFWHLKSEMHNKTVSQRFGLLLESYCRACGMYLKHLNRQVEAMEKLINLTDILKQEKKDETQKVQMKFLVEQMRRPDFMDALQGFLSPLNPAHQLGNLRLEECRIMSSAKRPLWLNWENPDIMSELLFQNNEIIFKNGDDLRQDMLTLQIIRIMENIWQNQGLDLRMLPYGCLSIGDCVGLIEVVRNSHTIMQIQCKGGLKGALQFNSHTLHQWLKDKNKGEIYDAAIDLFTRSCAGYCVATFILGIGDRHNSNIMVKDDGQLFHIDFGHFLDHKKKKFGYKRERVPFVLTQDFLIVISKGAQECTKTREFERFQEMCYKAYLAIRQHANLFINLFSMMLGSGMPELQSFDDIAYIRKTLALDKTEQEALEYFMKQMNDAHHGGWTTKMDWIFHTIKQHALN
Chain of PI3K (P27986 whole entry partner): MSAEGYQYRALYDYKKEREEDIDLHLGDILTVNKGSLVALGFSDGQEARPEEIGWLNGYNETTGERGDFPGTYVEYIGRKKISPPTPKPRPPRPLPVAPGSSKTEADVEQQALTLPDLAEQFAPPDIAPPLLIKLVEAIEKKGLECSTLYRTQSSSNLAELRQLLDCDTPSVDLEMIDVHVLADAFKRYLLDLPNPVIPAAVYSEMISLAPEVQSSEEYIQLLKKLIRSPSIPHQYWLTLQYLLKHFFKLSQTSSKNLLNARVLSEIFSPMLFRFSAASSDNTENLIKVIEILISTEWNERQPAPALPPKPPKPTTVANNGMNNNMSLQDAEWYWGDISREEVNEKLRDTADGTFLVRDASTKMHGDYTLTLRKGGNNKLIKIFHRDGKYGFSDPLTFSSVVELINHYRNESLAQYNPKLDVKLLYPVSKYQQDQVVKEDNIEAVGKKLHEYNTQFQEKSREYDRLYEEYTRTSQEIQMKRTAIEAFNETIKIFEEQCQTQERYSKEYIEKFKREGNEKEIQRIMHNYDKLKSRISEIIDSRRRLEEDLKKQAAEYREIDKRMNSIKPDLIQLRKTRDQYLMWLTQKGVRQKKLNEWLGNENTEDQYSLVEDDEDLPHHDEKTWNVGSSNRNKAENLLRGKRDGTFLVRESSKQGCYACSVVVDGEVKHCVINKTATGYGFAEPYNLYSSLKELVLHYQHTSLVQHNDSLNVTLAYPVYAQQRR

| Compound | IC50 ([2]; LNCaP) | IC50 ([3]; PI3Kα, read-out: PI3Kα IC50) | IC50 [1] | IC50 [2] | IC50 ([3]; PI3Kα IC50, PI3Kα) |
| --- | --- | --- | --- | --- | --- |
| CCCOC(=O)N1CCC(n2ncc3c(N4CCOCC4)nc(-c4ccc(NC(=O)NCCO)cc4)nc32)CC1 [Compound 855, propyl 4-[6-(4-{[(2-hydroxyethyl)carbamoyl]amino}phenyl)-4-morpholin-4-yl-1H-pyrazolo[3,4-d]pyrimidin-1-yl]piperidine-1-carboxylate] | 0.43 µM | 0.186 µM | 0.33 µM | – | – |
| CCCOC(=O)N1CCC(n2ncc3c(N4CCOCC4)nc(-c4ccc(NC(=O)OC)cc4)nc32)CC1 [Compound 857, propyl 4-(6-{4-[(methoxycarbonyl)amino]phenyl}-4-morpholin-4-yl-1H-pyrazolo[3,4-d]pyrimidin-1-yl)piperidine-1-carboxylate] | 1.6 µM | 2.77 µM | 5 µM | – | – |
| CCCOC(=O)N1CCC(n2ncc3c(N4CCOCC4)nc(-c4ccc(NC(=O)NCC5CC5)cc4)nc32)CC1 [Compound 858, propyl 4-[6-(4-{[(cyclopropylmethyl)carbamoyl]amino}phenyl)-4-morpholin-4-yl-1H-pyrazolo[3,4-d]pyrimidin-1-yl]piperidine-1-carboxylate] | 0.8 µM | 2.15 µM | 3.2 µM | – | – |
| COC(=O)N1CCC(n2ncc3c(N4CCOCC4)nc(-c4ccc(NC(=O)Nc5ccccc5F)cc4)nc32)CC1 [Compound 860, methyl 4-[6-(4-{[(2-fluorophenyl)carbamoyl]amino}phenyl)-4-morpholin-4-yl-1H-pyrazolo[3,4-d]pyrimidin-1-yl]piperidine-1-carboxylate] | 0.12 µM | 0.038 µM | 0.39 µM | – | – |
| COC(=O)N1CCC(n2ncc3c(N4CCOCC4)nc(-c4ccc(NC(=O)Nc5cccnc5F)cc4)nc32)CC1 [Compound 863, methyl 4-[6-(4-{[(2-fluoropyridin-3-yl)carbamoyl]amino}phenyl)-4-morpholin-4-yl-1H-pyrazolo[3,4-d]pyrimidin-1-yl]piperidine-1-carboxylate] | 0.17 µM | 0.266 µM | 0.68 µM | – | – |
| COC(=O)N1CCC(n2ncc3c(N4CCOCC4)nc(-c4ccc(NC(=O)OCCF)cc4)nc32)CC1 [Compound 865, methyl 4-[6-(4-{[(2-fluoroethoxy)carbonyl]amino}phenyl)-4-morpholin-4-yl-1H-pyrazolo[3,4-d]pyrimidin-1-yl]piperidine-1-carboxylate] | 0.68 µM | 2.95 µM | 4.1 µM | – | – |
| COC(=O)N1CCC(n2ncc3c(N4CCOCC4)nc(-c4ccc(NC(=O)Oc5ccccc5F)cc4)nc32)CC1 [Compound 866, methyl 4-[6-(4-{[(2-fluorophenoxy)carbonyl]amino}phenyl)-4-morpholin-4-yl-1H-pyrazolo[3,4-d]pyrimidin-1-yl]piperidine-1-carboxylate] | – | – | 30 µM | 12 µM | 12 µM |
| CNC(=O)Nc1ccc(-c2nc(N3CCOCC3)c3cnn(C4CC[S+]([O-])CC4)c3n2)cc1 (stereo not drawn) [Compound 868, 1-methyl-3-{4-[4-morpholin-4-yl-1-(1-oxidotetrahydro-2H-thiopyran-4-yl)-1H-pyrazolo[3,4-d]pyrimidin-6-yl]phenyl}urea] | 1.2 µM | 0.08 µM | 0.72 µM | – | – |
| CNC(=O)Nc1ccc(-c2nc(N3CCOCC3)c3cnn(C4CCS(=O)(=O)CC4)c3n2)cc1 [Compound 869, 1-{4-[1-(1,1-dioxidotetrahydro-2H-thiopyran-4-yl)-4-morpholin-4-yl-1H-pyrazolo[3,4-d]pyrimidin-6-yl]phenyl}-3-methylurea] | 0.54 µM | 0.074 µM | 0.59 µM | – | – |
| CC(C)(C)OC(=O)N1CCC[C@H](n2ncc3c(N4CCOCC4)nc(-c4ccc(N)cc4)nc32)C1 [Compound 870, tert-butyl (3S)-3-[6-(4-aminophenyl)-4-morpholin-4-yl-1H-pyrazolo[3,4-d]pyrimidin-1-yl]piperidine-1-carboxylate] | 7.6 µM | 0.549 µM | 26 µM | – | – |
| CC(C)(C)OC(=O)N1CCC[C@@H](n2ncc3c(N4CCOCC4)nc(-c4ccc(N)cc4)nc32)C1 [Compound 871, tert-butyl (3R)-3-[6-(4-aminophenyl)-4-morpholin-4-yl-1H-pyrazolo[3,4-d]pyrimidin-1-yl]piperidine-1-carboxylate] | 7.5 µM | 4.3 µM | 2.3 µM | – | – |
| CNC(=O)Nc1ccc(-c2nc(N3CCOCC3)c3cnn([C@H]4CCCN(C(=O)OC(C)(C)C)C4)c3n2)cc1 [Compound 872, tert-butyl (3S)-3-(6-{4-[(methylcarbamoyl)amino]phenyl}-4-morpholin-4-yl-1H-pyrazolo[3,4-d]pyrimidin-1-yl)piperidine-1-carboxylate] | 0.27 µM | 0.169 µM | 1 µM | – | – |
| CNC(=O)Nc1ccc(-c2nc(N3CCOCC3)c3cnn([C@H]4CCCNC4)c3n2)cc1 [Compound 873, 1-methyl-3-(4-{4-morpholin-4-yl-1-[(3S)-piperidin-3-yl]-1H-pyrazolo[3,4-d]pyrimidin-6-yl}phenyl)urea] | 0.41 µM | 0.074 µM | 0.73 µM | – | – |
| CNC(=O)Nc1ccc(-c2nc(N3CCOCC3)c3cnn([C@@H]4CCCN(C(=O)OC(C)(C)C)C4)c3n2)cc1 [Compound 874, tert-butyl (3R)-3-(6-{4-[(methylcarbamoyl)amino]phenyl}-4-morpholin-4-yl-1H-pyrazolo[3,4-d]pyrimidin-1-yl)piperidine-1-carboxylate] | 0.4 µM | 0.294 µM | 1.1 µM | – | – |
| CNC(=O)Nc1ccc(-c2nc(N3CCOCC3)c3cnn([C@@H]4CCCNC4)c3n2)cc1 [Compound 875, 1-methyl-3-(4-{4-morpholin-4-yl-1-[(3R)-piperidin-3-yl]-1H-pyrazolo[3,4-d]pyrimidin-6-yl}phenyl)urea] | 1.1 µM | 0.046 µM | 1.25 µM | – | – |
| CC(C)(C)COC(=O)N1CCC(n2ncc3c(N4CCOCC4)nc(-c4ccc(NC(=O)Nc5cccnc5)cc4)nc32)CC1 [Compound 877, 2,2-dimethylpropyl 4-(4-morpholin-4-yl-6-{4-[(pyridin-3-ylcarbamoyl)amino]phenyl}-1H-pyrazolo[3,4-d]pyrimidin-1-yl)piperidine-1-carboxylate] | 0.12 µM | 0.032 µM | 0.4 µM | – | – |

More lines, main results first:

| IC50 ([2]; LNCaP) | IC50 ([3]; PI3Kα, read-out: PI3Kα IC50) | Compound | IC50 [1] | IC50 [2] | IC50 ([3]; PI3Kα IC50, PI3Kα) |
| --- | --- | --- | --- | --- | --- |
| 0.09 µM | 0.77 µM | CCCOC(=O)N1CCC(n2ncc3c(N4CCOCC4)nc(-c4ccc(NC(=O)NC5CC5)cc4)nc32)CC1 [Compound 856, propyl 4-(6-{4-[(cyclopropylcarbamoyl)amino]phenyl}-4-morpholin-4-yl-1H-pyrazolo[3,4-d]pyrimidin-1-yl)piperidine-1-carboxylate] | 0.51 µM | – | – |
| 0.027 µM | 0.028 µM | COC(=O)N1CCC(n2ncc3c(N4CCOCC4)nc(-c4ccc(NC(=O)Nc5ccc(F)cc5)cc4)nc32)CC1 [Compound 859, methyl 4-[6-(4-{[(4-fluorophenyl)carbamoyl]amino}phenyl)-4-morpholin-4-yl-1H-pyrazolo[3,4-d]pyrimidin-1-yl]piperidine-1-carboxylate] | 0.078 µM | – | – |
| 0.11 µM | 0.25 µM | COC(=O)N1CCC(n2ncc3c(N4CCOCC4)nc(-c4ccc(NC(=O)Nc5ccc(F)cc5F)cc4)nc32)CC1 [Compound 861, methyl 4-[6-(4-{[(2,4-difluorophenyl)carbamoyl]amino}phenyl)-4-morpholin-4-yl-1H-pyrazolo[3,4-d]pyrimidin-1-yl]piperidine-1-carboxylate] | 0.58 µM | – | – |
| < 0.023 µM | 0.107 µM | COC(=O)N1CCC(n2ncc3c(N4CCOCC4)nc(-c4ccc(NC(=O)Nc5ccc(F)nc5)cc4)nc32)CC1 [Compound 862, methyl 4-[6-(4-{[(6-fluoropyridin-3-yl)carbamoyl]amino}phenyl)-4-morpholin-4-yl-1H-pyrazolo[3,4-d]pyrimidin-1-yl]piperidine-1-carboxylate] | < 0.0885 µM | – | – |
| 0.0274 µM | 0.116 µM | COC(=O)N1CCC(n2ncc3c(N4CCOCC4)nc(-c4ccc(NC(=O)Nc5ccncc5F)cc4)nc32)CC1 [Compound 864, methyl 4-[6-(4-{[(3-fluoropyridin-4-yl)carbamoyl]amino}phenyl)-4-morpholin-4-yl-1H-pyrazolo[3,4-d]pyrimidin-1-yl]piperidine-1-carboxylate] | 0.098 µM | – | – |
| < 0.0185 µM | 0.047 µM | CNC(=O)Nc1ccc(-c2nc(N3CCOCC3)c3cnn(C4CCSCC4)c3n2)cc1 [Compound 867, 1-methyl-3-{4-[4-morpholin-4-yl-1-(tetrahydro-2H-thiopyran-4-yl)-1H-pyrazolo[3,4-d]pyrimidin-6-yl]phenyl}urea] | < 0.0685 µM | – | – |
| 0.11 µM | 0.087 µM | CNC(=O)Nc1ccc(-c2nc(N3CCOCC3)c3cnn(C4CCN(C(=O)OCC(C)(C)C)CC4)c3n2)cc1 [Compound 876, 2,2-dimethylpropyl 4-(6-{4-[(methylcarbamoyl)amino]phenyl}-4-morpholin-4-yl-1H-pyrazolo[3,4-d]pyrimidin-1-yl)piperidine-1-carboxylate] | 0.35 µM | – | – |
| 0.04 µM | 0.054 µM | CNC(=O)Nc1ccc(-c2nc(N3CCOCC3)c3cnn(C4CCN(C(=O)OCCF)CC4)c3n2)cc1 [Compound 878, 2-fluoroethyl 4-(6-{4-[(methylcarbamoyl)amino]phenyl}-4-morpholin-4-yl-1H-pyrazolo[3,4-d]pyrimidin-1-yl)piperidine-1-carboxylate] | 0.12 µM | – | – |
| 0.0039 µM | 0.012 µM | O=C(Nc1ccc(-c2nc(N3CCOCC3)c3cnn(C4CCN(C(=O)OCCF)CC4)c3n2)cc1)Nc1cccnc1 [Compound 879, 2-fluoroethyl 4-(4-morpholin-4-yl-6-{4-[(pyridin-3-ylcarbamoyl)amino]phenyl}-1H-pyrazolo[3,4-d]pyrimidin-1-yl)piperidine-1-carboxylate] | 0.034 µM | – | – |
